In patent US20200017495A1, “NOVEL HETEROCYCLIC COMPOUNDS AND THEIR USE IN PREVENTING OR TREATING BACTERIAL INFECTIONS” (priority 2017, published 2020):

Key:
[1] = biological target: SAU PC1 (Staphylococcus aureus, UniProt P00807); experiment: β-lactamase inhibitory activity, IC50 (nitrocefin hydrolysis); assay type: biochemical, S. aureus
Description: (§1) Method 1: β-Lactamase Inhibitory Activity, Determination of IC50 (Table 1)
(§2) Enzymes were cloned in E. coli expression vector, expressed and purified in house using classical procedures. […] After 30 min of pre-incubation at room temperature, 15 μL of NCF (100 μM final) were finally added in each well. […] Enzyme activity was obtained by subtracting the background from the final signal, and was converted to enzyme inhibition using non inhibited wells. IC50 curves were fitted to a classical Langmuir equilibrium model with Hill slope using XLFIT (IDBS).

[2] = biological target: TEM-1 (Escherichia coli, UniProt P62593); experiment: as above; assay type: biochemical
Description: as §2

[3] = biological target: OXA-11 (Pseudomonas aeruginosa, UniProt Q06778); experiment: as above; assay type: biochemical
Sequence of OXA-11 (Q06778 21-266): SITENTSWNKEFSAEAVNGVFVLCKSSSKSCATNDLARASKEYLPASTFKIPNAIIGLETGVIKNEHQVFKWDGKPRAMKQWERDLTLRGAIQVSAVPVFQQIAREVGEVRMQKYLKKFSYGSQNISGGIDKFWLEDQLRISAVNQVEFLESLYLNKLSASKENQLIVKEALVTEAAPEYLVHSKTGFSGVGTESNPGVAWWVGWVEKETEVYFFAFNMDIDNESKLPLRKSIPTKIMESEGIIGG
Description: as §2

[4] = biological target: OXA-15 (Pseudomonas aeruginosa, UniProt Q51574); experiment: as above; assay type: biochemical
Sequence of OXA-15 (Q51574 22-275): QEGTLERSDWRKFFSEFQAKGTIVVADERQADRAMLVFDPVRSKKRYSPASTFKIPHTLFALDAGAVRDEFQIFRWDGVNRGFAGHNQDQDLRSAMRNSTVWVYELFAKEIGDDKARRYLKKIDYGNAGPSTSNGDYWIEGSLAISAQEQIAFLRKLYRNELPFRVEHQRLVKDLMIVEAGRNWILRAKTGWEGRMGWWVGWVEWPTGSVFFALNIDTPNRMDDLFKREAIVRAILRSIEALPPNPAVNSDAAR
Description: as §2

[5] = biological target: SHV-12 (Klebsiella pneumoniae, UniProt P0AD64, E235K/G234S/L31Q); experiment: as above; assay type: biochemical
Sequence of SHV-12 (P0AD64 22-286 L31Q/G234S/E235K): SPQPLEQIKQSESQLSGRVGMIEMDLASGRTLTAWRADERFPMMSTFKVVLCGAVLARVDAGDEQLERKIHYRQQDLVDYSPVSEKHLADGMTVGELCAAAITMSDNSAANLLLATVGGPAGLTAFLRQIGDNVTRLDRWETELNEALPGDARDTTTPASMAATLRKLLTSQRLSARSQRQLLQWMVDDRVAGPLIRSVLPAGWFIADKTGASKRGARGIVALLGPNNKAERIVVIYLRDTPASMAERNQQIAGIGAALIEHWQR
Description: as §1, §2

[6] = biological target: OXA-58 (Acinetobacter baumannii, UniProt Q2TR58); experiment: as above; assay type: biochemical
Sequence of OXA-58 (Q2TR58 19-280): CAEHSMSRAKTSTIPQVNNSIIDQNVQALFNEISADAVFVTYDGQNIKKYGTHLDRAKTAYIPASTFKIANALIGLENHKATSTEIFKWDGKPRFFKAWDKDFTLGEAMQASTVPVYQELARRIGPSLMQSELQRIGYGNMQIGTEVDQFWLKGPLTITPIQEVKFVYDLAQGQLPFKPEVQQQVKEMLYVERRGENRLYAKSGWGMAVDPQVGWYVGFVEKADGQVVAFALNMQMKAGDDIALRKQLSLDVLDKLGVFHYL
Description: as §2

[7] = biological target: OXA-48 (Klebsiella pneumoniae, UniProt Q6XEC0); experiment: as above; assay type: biochemical
Sequence of OXA-48 (Q6XEC0 23-265 limits assumed): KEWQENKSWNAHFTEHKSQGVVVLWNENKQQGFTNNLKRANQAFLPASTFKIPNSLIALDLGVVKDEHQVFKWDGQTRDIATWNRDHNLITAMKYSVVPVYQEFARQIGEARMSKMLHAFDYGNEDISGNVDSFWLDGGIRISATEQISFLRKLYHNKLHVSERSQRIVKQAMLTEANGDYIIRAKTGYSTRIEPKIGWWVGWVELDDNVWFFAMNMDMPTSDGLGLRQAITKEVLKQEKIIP
Description: as §2

[8] = biological target: OXA-23 (Acinetobacter baumannii, UniProt Q9L4P2); experiment: as above; assay type: biochemical
Sequence of OXA-23 (Q9L4P2 18-273): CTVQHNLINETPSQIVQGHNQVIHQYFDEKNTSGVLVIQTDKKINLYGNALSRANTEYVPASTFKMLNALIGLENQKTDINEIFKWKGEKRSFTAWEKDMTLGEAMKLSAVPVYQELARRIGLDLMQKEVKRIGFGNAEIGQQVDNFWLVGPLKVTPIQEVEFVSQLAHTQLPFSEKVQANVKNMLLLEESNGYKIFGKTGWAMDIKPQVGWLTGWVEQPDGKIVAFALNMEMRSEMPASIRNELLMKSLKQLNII
Description: as §2

[9] = biological target: KPC-2 (Klebsiella pneumoniae, UniProt Q9F663); experiment: as above; assay type: biochemical
Sequence of KPC-2 (Q9F663 25-293 limits assumed): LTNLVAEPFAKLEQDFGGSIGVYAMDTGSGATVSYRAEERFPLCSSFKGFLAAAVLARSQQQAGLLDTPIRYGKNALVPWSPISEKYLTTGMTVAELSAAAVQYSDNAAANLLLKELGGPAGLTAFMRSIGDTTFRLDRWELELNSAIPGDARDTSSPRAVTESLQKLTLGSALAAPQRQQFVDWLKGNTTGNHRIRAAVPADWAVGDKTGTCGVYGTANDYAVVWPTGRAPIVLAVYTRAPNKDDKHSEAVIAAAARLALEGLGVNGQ
Description: as §1, §2

[10] = Rat intraduodenal bioavailability determination; assay type: in vivo, Male Sprague-Dawley (SD) rats; conditions: 10 mg/kg, AF2 titrated in plasma
Description: Method 3: Rat Intraduodenal Bioavailability Determination (Table 7) Intravenous (jugular) or intraduodenal catheterized Male Sprague-Dawley (SD) rats (250-270 g) were obtained from Janvier Labs (Le Genest-Saint-Isle, France). All rats were housed in a −temperature (20±2° C.) and −humidity (55%±10%) controlled room with 12h light/dark cycle, and were acclimatized for at least 4 days before experimentation. Water and food were available ad libitum throughout the study. All rats were handled in accordance with the institutional and national guidelines for the care and use of laboratory animals. Rats were allocated to two groups based on the administration route: intravenous or intraduodenal administration (n=3/group). In the intravenous administration study, drugs (10 mg/kg in phosphate buffer 10 mM, pH7.4) were administered under isoflurane anesthesia via the catheter placed in the jugular vein. […] The pharmacokinetic parameters were calculated using XLfit (IDBS) and Excel (Microsoft) software, using standard non-compartmental methods. The intraduodenal bioavailability was calculated by dividing the AUC obtained from the intraduodenal administration by the AUC obtained from the intravenous administration.

Sequence of TEM-1 (P62593 24-286 limits assumed): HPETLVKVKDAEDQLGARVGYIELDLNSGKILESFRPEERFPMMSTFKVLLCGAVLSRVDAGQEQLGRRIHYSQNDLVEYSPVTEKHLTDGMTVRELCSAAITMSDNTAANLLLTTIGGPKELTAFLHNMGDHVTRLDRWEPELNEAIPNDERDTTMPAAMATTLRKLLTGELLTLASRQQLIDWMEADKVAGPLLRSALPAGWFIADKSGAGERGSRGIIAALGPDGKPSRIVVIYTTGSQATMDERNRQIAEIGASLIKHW
Sequence of SAU PC1 (P00807 25-281): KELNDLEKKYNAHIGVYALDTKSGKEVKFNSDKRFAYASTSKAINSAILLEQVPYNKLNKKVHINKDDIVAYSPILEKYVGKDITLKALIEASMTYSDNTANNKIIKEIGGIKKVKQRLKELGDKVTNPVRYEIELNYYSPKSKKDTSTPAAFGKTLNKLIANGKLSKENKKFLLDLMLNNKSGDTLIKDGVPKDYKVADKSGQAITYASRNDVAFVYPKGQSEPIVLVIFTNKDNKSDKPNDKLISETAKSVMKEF

SMILES | IC50 [1] | IC50 [2] | IC50 [3] | IC50 [4] | IC50 [5] | IC50 [6] | IC50 [7] | IC50 [8] | IC50 [9] | AUC 0-∞ ([10]; intravenous) | AUC(0-inf) ([10]; male, Sprague-Dawley, plasma, iv)
O=C1N2CC(n3cccn3)=CC(C2)N1OC(F)(F)C(=O)[O-].[Li+] (centres unmarked) [AF3] | 120 nM | 0.81 nM | 40 nM | 120 nM | 4.3 nM | 1000 nM | 5.1 nM | 9600 nM | 77 nM | – | –
O=C1N2CC(c3ncco3)=CC(C2)N1OC(F)(F)C(=O)[O-].[Li+] (centres unmarked) [AF2] | 220 nM | 2.6 nM | 84 nM | 140 nM | 4.1 nM | 580 nM | 2.4 nM | 7400 nM | 69 nM | 10789 ng·h/mL | 11000 ng·h/mL
